# Measurements from patent US20230085307A1, “PYRIDAZINONE COMPOUND AND HERBICIDE” (NISSAN CHEMICAL CORPORATION, priority 2019, published 2023).
# Experiments:
# wild oat [1] = assay: Test Example 4: herbicidal effect by soil treatment (Table 19, symbol I); assay type: in vivo, wild oat (Avena fatua); details: amount of applied herbicide 320 g/ha
# Summary of the method: (§1)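 Step 1: sow seeds in sterilized diluvial soil, cover ~1.5 cm. Step 2: spray diluted emulsion onto soil surface at predetermined rate. Step 3: greenhouse, 25–30° C, three weeks. Step 4: grade effect on each plant by earlier criteria.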
# persian speedwell [2] = assay: Test Example 5: herbicidal effect by foliage application, plastic box (Table 20, symbol R); assay type: in vivo, Persian speedwell (Veronica persica); details: foliage application, 320 g/ha, three weeks after application
# Summary of the method: (§2)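 Foliar spray test: emulsion formulation diluted in water to a set application rate, sprayed onto 14-day-old plants raised in diluvial soil at 25° C to 30° C under glass. Both herbicidal effect and crop effect rated visually three weeks later.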
# windgrass [3] = assay: Test Example 5: herbicidal effect by foliage application, plastic box (Table 20, symbol L); assay type: in vivo, windgrass (Apera spica-venti); details: foliage application, 320 g/ha, three weeks after application
# Summary of the method: as §2
# Italian ryegrass [4] = assay: Test Example 5: herbicidal effect by foliage application, plastic box (Table 20, symbol K); assay type: in vivo, Italian ryegrass (Lolium multiflorum); details: foliage application, 320 g/ha, three weeks after application
# Summary of the method: as §2
# lambsquarters [5] = assay: Test Example 4: herbicidal effect by soil treatment (Table 19, symbol O); assay type: in vivo, lambsquarters (Chenopodium album); details: amount of applied herbicide 320 g/ha
# Summary of the method: as §1
# barnyard grass [6] = assay: Test Example 3: herbicidal effect by foliage application, Wagner pot (Table 18, symbol H); assay type: in vivo, barnyard grass (Echinochloa crus-galli); details: 320 g/ha
# Summary of the method: (§3)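 Plants were sown in alluvial soil held under 0.1–0.5 cm standing water and grown 14 days in a greenhouse at 25–30 °C. An emulsifiable formulation, water-diluted to the set dose, was then sprayed onto the foliage, and effects were scored three weeks later using previously defined criteria.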
# redroot pigweed [7] = assay: Test Example 5: herbicidal effect by foliage application, plastic box (Table 20, symbol N); assay type: in vivo, redroot pigweed (Amaranthus retroflexus); details: foliage application, 320 g/ha, three weeks after application
# Summary of the method: as §2
# wild oat [8] = assay: Test Example 5: herbicidal effect by foliage application, plastic box (Table 20, symbol I); assay type: in vivo, wild oat (Avena fatua); details: foliage application, 320 g/ha, three weeks after application
# Summary of the method: as §2
# Chinese sprangletop = assay: Test Example 3: herbicidal effect by foliage application, Wagner pot (Table 18, symbol D); assay type: in vivo, chinese sprangletop (Leptochloa chinensis); details: 320 g/ha
# Summary of the method: as §3
# redroot pigweed [9] = assay: Test Example 4: herbicidal effect by soil treatment (Table 19, symbol N); assay type: in vivo, redroot pigweed (Amaranthus retroflexus); details: amount of applied herbicide 320 g/ha
# Summary of the method: as §1
# green foxtail [10] = assay: Test Example 4: herbicidal effect by soil treatment (Table 19, symbol G); assay type: in vivo, green foxtail (Setaria viridis); details: amount of applied herbicide 320 g/ha
# Summary of the method: as §1
# rice flat sedge = assay: Test Example 3: herbicidal effect by foliage application, Wagner pot (Table 18, symbol E); assay type: in vivo, rice flat sedge (Cyperus iria); details: 320 g/ha
# Summary of the method: as §3
# velvetleaf [11] = assay: Test Example 5: herbicidal effect by foliage application, plastic box (Table 20, symbol M); assay type: in vivo, velvetleaf (Abutilon theophrasti); details: foliage application, 320 g/ha, three weeks after application
# Summary of the method: as §2
# barnyard grass [12] = assay: Test Example 4: herbicidal effect by soil treatment (Table 19, symbol H); assay type: in vivo, barnyard grass (Echinochloa crus-galli); details: amount of applied herbicide 320 g/ha
# Summary of the method: as §1
# chickweed [13] = assay: Test Example 5: herbicidal effect by foliage application, plastic box (Table 20, symbol P); assay type: in vivo, common chickweed (Stellaria media); details: foliage application, 320 g/ha, three weeks after application
# Summary of the method: as §2
# barnyard grass [14] = assay: Test Example 5: herbicidal effect by foliage application, plastic box (Table 20, symbol H); assay type: in vivo, barnyard grass (Echinochloa crus-galli); details: foliage application, 320 g/ha, three weeks after application
# Summary of the method: as §2
# windgrass [15] = assay: Test Example 4: herbicidal effect by soil treatment (Table 19, symbol L); assay type: in vivo, windgrass (Apera spica-venti); details: amount of applied herbicide 320 g/ha
# Summary of the method: as §1
# Italian ryegrass [16] = assay: Test Example 4: herbicidal effect by soil treatment (Table 19, symbol K); assay type: in vivo, Italian ryegrass (Lolium multiflorum); details: amount of applied herbicide 320 g/ha
# Summary of the method: as §1
# blackgrass [17] = assay: Test Example 4: herbicidal effect by soil treatment (Table 19, symbol J); assay type: in vivo, blackgrass (Alopecurus myosuroides); details: amount of applied herbicide 320 g/ha
# Summary of the method: as §1
# lambsquarters [18] = assay: Test Example 5: herbicidal effect by foliage application, plastic box (Table 20, symbol O); assay type: in vivo, lambsquarters (Chenopodium album); details: foliage application, 320 g/ha, three weeks after application
# Summary of the method: as §2
# southern crabgrass [19] = assay: Test Example 5: herbicidal effect by foliage application, plastic box (Table 20, symbol F); assay type: in vivo, southern crabgrass (Digitaria ciliaris); details: foliage application, 320 g/ha, three weeks after application
# Summary of the method: as §2
# green foxtail [20] = assay: Test Example 5: herbicidal effect by foliage application, plastic box (Table 20, symbol G); assay type: in vivo, green foxtail (Setaria viridis); details: foliage application, 320 g/ha, three weeks after application
# Summary of the method: as §2
# chickweed [21] = assay: Test Example 4: herbicidal effect by soil treatment (Table 19, symbol P); assay type: in vivo, common chickweed (Stellaria media); details: amount of applied herbicide 320 g/ha
# Summary of the method: as §1
# blackgrass [22] = assay: Test Example 5: herbicidal effect by foliage application, plastic box (Table 20, symbol J); assay type: in vivo, blackgrass (Alopecurus myosuroides); details: foliage application, 320 g/ha, three weeks after application
# Summary of the method: as §2
# southern crabgrass [23] = assay: Test Example 4: herbicidal effect by soil treatment (Table 19, symbol F); assay type: in vivo, southern crabgrass (Digitaria ciliaris); details: amount of applied herbicide 320 g/ha
# Summary of the method: as §1
# velvetleaf [24] = assay: Test Example 4: herbicidal effect by soil treatment (Table 19, symbol M); assay type: in vivo, velvetleaf (Abutilon theophrasti); details: amount of applied herbicide 320 g/ha
# Summary of the method: as §1
# persian speedwell [25] = assay: Test Example 4: herbicidal effect by soil treatment (Table 19, symbol R); assay type: in vivo, Persian speedwell (Veronica persica); details: amount of applied herbicide 320 g/ha
# Summary of the method: as §1
compound,measurement,setting,value
CCCC(=O)Oc1c(C)nn(C)c(=O)c1-c1c(-c2ccc(F)cc2OC)sc2ccccc12 [1-056],"herbicidal effect rating, I: wild oat",wild oat [1],3 (Herbicidal rate of 40% or more and less than 70%)
same,"herbicidal effect grade, R: persian speedwell",persian speedwell [2],3 (Herbicidal rate of 40% or more and less than 70%)
same,"herbicidal effect grade, L: windgrass",windgrass [3],5 (Herbicidal rate of 90% or more (almost completely withered))
same,"herbicidal effect grade, K: Italian ryegrass",Italian ryegrass [4],1 (Herbicidal rate of 5% or more and less than 20%)
same,"herbicidal effect rating, O: lambsquarters",lambsquarters [5],3 (Herbicidal rate of 40% or more and less than 70%)
same,"herbicidal effect on H (barnyard grass), rating 0-5",barnyard grass [6],4 (Herbicidal rate of 70% or more and less than 90%)
same,"herbicidal effect grade, N: redroot pigweed",redroot pigweed [7],3 (Herbicidal rate of 40% or more and less than 70%)
same,"herbicidal effect grade, I: wild oat",wild oat [8],4 (Herbicidal rate of 70% or more and less than 90%)
same,"herbicidal effect on D (Chinese sprangletop), rating 0-5",Chinese sprangletop,2 (Herbicidal rate of 20% or more and less than 40%)
same,"herbicidal effect rating, N: redroot pigweed",redroot pigweed [9],5 (Herbicidal rate of 90% or more (almost completely withered))
same,"herbicidal effect rating, G: green foxtail",green foxtail [10],5 (Herbicidal rate of 90% or more (almost completely withered))
same,"herbicidal effect on E (rice flat sedge), rating 0-5",rice flat sedge,5 (Herbicidal rate of 90% or more (almost completely withered))
same,"herbicidal effect grade, M: velvetleaf",velvetleaf [11],4 (Herbicidal rate of 70% or more and less than 90%)
same,"herbicidal effect rating, H: barnyard grass",barnyard grass [12],3 (Herbicidal rate of 40% or more and less than 70%)
same,"herbicidal effect grade, P: chickweed",chickweed [13],5 (Herbicidal rate of 90% or more (almost completely withered))
same,"herbicidal effect grade, H: barnyard grass",barnyard grass [14],4 (Herbicidal rate of 70% or more and less than 90%)
same,"herbicidal effect rating, L: windgrass",windgrass [15],5 (Herbicidal rate of 90% or more (almost completely withered))
same,"herbicidal effect rating, K: Italian ryegrass",Italian ryegrass [16],0 (Herbicidal rate of 5% or less (almost no effect))
same,"herbicidal effect rating, J: blackgrass",blackgrass [17],1 (Herbicidal rate of 5% or more and less than 20%)
same,"herbicidal effect grade, O: lambsquarters",lambsquarters [18],2 (Herbicidal rate of 20% or more and less than 40%)
same,"herbicidal effect grade, F: southern crabgrass",southern crabgrass [19],5 (Herbicidal rate of 90% or more (almost completely withered))
same,"herbicidal effect grade, G: green foxtail",green foxtail [20],5 (Herbicidal rate of 90% or more (almost completely withered))
same,"herbicidal effect rating, P: chickweed",chickweed [21],3 (Herbicidal rate of 40% or more and less than 70%)
same,"herbicidal effect grade, J: blackgrass",blackgrass [22],4 (Herbicidal rate of 70% or more and less than 90%)
same,"herbicidal effect rating, F: southern crabgrass",southern crabgrass [23],3 (Herbicidal rate of 40% or more and less than 70%)
same,"herbicidal effect rating, M: velvetleaf",velvetleaf [24],0 (Herbicidal rate of 5% or less (almost no effect))
same,"herbicidal effect rating, R: persian speedwell",persian speedwell [25],4 (Herbicidal rate of 70% or more and less than 90%)
